Tests used:
Set-up in all cases: scale not given: the % may be the effect or the level left
[1] = target: T1, Tyrosine-protein kinase receptor TYRO3 (Homo sapiens) (UniProt Q06418); assay: Inhibition of human TYRO3 assessed as enzyme activity at 1 uM using poly[Glu:Tyr] (4:1) as substrate preincubated for 20 mins followed by [gamma-33P]-ATP addition and measured after 120 mins by radiometric Hot-SpotSM Kinase assay relative to control
T1 sequence (whole entry): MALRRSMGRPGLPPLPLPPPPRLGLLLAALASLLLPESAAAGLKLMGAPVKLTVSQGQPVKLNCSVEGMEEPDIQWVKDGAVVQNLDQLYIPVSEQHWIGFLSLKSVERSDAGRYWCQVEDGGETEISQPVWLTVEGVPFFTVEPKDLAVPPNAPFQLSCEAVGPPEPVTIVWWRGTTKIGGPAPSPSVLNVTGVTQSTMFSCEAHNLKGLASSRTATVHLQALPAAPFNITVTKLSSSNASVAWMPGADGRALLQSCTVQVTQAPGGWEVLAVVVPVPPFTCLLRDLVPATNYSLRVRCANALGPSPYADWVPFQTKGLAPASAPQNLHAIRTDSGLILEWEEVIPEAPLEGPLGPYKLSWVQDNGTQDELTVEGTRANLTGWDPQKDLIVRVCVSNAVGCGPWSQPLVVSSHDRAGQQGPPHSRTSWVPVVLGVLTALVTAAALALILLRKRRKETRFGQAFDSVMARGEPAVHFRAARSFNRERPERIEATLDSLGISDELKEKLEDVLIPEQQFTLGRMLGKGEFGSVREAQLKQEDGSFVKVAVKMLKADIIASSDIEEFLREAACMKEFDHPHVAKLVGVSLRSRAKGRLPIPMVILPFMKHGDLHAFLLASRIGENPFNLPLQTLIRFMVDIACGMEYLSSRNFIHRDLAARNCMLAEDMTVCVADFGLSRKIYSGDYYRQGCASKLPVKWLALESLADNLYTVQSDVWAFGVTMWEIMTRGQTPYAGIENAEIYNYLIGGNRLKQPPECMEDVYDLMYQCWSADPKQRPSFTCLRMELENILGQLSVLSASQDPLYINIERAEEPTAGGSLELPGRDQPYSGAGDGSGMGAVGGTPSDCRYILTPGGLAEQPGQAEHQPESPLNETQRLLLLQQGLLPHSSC

[2] = target: T2, Interleukin-1 receptor-associated kinase 4 (Homo sapiens) (UniProt Q9NWZ3); assay: Inhibition of human IRAK4 assessed as enzyme activity at 1 uM using myelin basic protein as substrate preincubated for 20 mins followed by [gamma-33P]-ATP addition and measured after 120 mins by radiometric Hot-SpotSM Kinase assay relative to control
T2 sequence (whole entry): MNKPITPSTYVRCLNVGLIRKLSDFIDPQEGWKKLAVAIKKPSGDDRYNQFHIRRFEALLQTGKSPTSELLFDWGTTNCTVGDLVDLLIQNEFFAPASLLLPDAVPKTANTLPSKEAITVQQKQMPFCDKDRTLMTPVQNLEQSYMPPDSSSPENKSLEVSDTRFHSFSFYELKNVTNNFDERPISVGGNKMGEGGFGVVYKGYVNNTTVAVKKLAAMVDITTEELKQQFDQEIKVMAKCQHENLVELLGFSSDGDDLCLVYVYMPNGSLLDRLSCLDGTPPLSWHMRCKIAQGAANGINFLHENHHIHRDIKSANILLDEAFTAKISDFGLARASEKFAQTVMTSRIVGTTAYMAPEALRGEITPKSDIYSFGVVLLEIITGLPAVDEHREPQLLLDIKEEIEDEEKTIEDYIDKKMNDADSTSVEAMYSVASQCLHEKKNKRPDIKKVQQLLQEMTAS

[3] = target: T3, Mitogen-activated protein kinase kinase kinase kinase 3 (Homo sapiens) (UniProt Q8IVH8); assay: Inhibition of human GLK/MAP4K3 assessed as enzyme activity at 1 uM using myelin basic protein as substrate preincubated for 20 mins followed by [gamma-33P]-ATP addition and measured after 120 mins by radiometric Hot-SpotSM Kinase assay relative to control
T3 sequence (whole entry): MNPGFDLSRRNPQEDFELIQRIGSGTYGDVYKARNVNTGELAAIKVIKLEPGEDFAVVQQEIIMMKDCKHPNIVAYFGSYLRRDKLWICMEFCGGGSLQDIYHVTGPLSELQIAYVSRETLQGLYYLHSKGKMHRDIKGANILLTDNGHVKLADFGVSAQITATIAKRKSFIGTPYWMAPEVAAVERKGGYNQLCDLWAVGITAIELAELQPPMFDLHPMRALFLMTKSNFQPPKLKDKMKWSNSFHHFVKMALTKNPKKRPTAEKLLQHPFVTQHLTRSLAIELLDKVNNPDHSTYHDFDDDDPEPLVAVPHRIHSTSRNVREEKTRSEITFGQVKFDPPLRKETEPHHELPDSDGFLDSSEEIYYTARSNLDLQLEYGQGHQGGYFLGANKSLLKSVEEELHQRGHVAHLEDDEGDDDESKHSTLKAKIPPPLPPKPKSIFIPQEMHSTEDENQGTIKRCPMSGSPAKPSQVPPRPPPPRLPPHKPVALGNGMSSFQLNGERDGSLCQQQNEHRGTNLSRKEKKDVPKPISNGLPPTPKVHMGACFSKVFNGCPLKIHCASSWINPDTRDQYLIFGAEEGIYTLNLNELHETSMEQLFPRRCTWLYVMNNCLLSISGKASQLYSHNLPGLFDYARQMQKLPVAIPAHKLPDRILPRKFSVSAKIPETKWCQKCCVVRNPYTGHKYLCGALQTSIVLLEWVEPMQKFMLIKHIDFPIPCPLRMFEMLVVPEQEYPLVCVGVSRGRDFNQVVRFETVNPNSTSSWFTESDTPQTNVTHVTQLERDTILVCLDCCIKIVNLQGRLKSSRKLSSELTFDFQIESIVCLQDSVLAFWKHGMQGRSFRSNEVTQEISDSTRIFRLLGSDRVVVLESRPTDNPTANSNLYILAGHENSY

[4] = target: Epidermal growth factor receptor (Homo sapiens) (UniProt P00533); assay: Inhibition of human EGFR assessed as enzyme activity at 1 uM using poly[Glu:Tyr] (4:1) as substrate preincubated for 20 mins followed by [gamma-33P]-ATP addition and measured after 120 mins by radiometric Hot-SpotSM Kinase assay relative to control
Sequence of Epidermal growth factor receptor (Homo sapiens) (P00533 whole entry): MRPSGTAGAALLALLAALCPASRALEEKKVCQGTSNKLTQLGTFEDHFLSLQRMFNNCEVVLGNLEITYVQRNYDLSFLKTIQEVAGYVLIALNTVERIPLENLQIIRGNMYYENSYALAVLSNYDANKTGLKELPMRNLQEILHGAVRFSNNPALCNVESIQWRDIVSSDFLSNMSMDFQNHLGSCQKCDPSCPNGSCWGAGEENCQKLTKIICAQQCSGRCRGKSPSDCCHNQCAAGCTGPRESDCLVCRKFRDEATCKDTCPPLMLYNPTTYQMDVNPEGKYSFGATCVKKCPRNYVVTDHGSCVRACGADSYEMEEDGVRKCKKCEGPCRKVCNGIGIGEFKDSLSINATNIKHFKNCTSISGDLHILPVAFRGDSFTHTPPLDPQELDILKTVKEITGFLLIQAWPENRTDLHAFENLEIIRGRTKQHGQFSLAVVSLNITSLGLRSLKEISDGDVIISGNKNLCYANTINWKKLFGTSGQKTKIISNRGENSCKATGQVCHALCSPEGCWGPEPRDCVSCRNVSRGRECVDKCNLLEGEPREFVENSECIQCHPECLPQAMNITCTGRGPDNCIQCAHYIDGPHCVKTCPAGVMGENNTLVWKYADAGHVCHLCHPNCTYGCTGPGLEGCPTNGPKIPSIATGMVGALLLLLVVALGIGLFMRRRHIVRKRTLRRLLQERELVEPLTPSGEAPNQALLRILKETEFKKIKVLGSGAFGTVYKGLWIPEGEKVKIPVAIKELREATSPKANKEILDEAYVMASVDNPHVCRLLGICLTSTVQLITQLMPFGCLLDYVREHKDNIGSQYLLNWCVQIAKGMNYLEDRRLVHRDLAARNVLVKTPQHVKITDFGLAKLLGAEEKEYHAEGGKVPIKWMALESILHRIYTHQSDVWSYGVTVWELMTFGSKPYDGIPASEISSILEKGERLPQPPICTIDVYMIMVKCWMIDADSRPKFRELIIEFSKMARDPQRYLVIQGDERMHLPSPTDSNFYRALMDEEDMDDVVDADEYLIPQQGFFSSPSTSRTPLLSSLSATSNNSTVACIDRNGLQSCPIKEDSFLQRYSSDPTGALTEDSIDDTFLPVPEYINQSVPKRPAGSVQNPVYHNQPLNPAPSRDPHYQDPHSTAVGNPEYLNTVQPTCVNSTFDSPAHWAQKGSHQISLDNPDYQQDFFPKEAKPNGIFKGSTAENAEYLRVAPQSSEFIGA

[5] = target: Calcium/calmodulin-dependent protein kinase type II subunit beta (Homo sapiens) (UniProt Q13554); assay: Inhibition of human CAMK2b assessed as enzyme activity at 1 uM using KKALRRQETVDAL as substrate preincubated for 20 mins followed by [gamma-33P]-ATP addition and measured after 120 mins by radiometric Hot-SpotSM Kinase assay relative to control
Sequence of Calcium/calmodulin-dependent protein kinase type II subunit beta (Homo sapiens) (Q13554 whole entry): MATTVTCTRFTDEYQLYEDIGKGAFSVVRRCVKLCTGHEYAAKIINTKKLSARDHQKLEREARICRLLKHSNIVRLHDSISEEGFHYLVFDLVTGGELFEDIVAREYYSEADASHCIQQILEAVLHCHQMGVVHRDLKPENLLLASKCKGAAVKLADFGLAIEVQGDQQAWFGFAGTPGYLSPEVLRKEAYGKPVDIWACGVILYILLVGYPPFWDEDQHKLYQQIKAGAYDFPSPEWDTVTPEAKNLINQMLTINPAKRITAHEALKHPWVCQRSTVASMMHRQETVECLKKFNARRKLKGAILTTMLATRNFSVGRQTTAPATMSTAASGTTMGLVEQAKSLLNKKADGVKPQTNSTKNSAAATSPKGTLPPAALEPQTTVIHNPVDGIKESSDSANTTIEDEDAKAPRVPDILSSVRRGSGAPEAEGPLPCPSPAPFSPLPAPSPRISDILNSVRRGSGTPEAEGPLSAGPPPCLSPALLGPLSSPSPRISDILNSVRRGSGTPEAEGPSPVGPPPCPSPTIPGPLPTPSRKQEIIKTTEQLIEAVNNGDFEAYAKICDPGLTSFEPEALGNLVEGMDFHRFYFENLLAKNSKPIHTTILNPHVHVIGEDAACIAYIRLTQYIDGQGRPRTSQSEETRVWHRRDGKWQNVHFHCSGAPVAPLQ

Row | Structure (SMILES) | Activity [1] [%] | Activity [2] [%] | Activity [3] [%] | Activity [4] [%] | Activity [5] [%]
1 | C[C@H](Nc1ncnc2nc[nH]c12)c1cc2cccc(Cl)c2c(=O)n1-c1ccccc1 | 98.5 | 91 | 98.3 | 99.1 | 95.8
2 | CC[C@H](Nc1ncnc2[nH]cnc12)c1nc2cccc(F)c2c(=O)n1-c1ccccc1 | 98.9 | 96.3 | 95.2 | 95.4 | 96.2
3 | CC(C)Oc1ccc(-c2nn([C@@H](C)c3oc4ccc(F)cc4c(=O)c3-c3cccc(F)c3)c3ncnc(N)c23)cc1F [UMBRALISIB] | 96.8 | 101 | 99.3 | 97.7 | 92.3

— ChEMBL document CHEMBL5715954, “Silencing c-Myc translation as a therapeutic strategy through targeting PI3Kδ and CK1ε in hematological malignancies” (Blood, 2017)
